Measurements from paper PMC10272563, “Novel gold(III)-dithiocarbamate complex targeting bacterial thioredoxin reductase: antimicrobial activity, synergy, toxicity, and mechanistic insights” (Frontiers in Microbiology, 2023).
Read-outs that look alike come from different tables or passages of the source.

Key:
[1] = target: T1, E. coli TrxR (thioredoxin reductase) (Escherichia coli, UniProt P0A9P4); design: gene trxB
[2] = target: T1, E. coli TrxR (thioredoxin reductase); test: Trx-coupled DTNB reduction assay, purified recombinant enzyme; activity recovered after desalting; type: biochemical; design: gene trxB; GenBank PSY25180.1, residues 1–321, His6-SUMO tag removed

T1 sequence (P0A9P4 whole entry, the tested form may be a part): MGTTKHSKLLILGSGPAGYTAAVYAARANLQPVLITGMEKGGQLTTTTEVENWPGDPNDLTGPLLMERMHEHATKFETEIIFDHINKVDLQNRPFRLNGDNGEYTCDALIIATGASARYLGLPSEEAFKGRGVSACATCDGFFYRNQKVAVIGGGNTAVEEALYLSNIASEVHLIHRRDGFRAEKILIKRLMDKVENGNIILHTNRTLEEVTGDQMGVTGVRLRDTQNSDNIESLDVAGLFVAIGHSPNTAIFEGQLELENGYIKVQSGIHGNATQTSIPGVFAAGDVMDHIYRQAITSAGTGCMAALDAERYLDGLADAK
T1 sequence (P0AA25 whole entry, further chain, the tested form may be a part): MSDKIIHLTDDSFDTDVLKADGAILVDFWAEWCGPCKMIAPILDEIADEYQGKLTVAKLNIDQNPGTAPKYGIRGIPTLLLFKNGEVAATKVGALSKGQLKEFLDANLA

Molecule	IC50 [1]	IC50 [2]
CC[P](CC)(CC)=[Au][S][C@@H]1O[C@H](COC(C)=O)[C@@H](OC(C)=O)[C@H](OC(C)=O)[C@H]1OC(C)=O [auranofin]	1110 nM	
[Au(dppta)Cl2] [compound 1]		1330 nM
[Au(dppta)(mrdtc)][PF6] [compound 2]		1920 nM
